According to article PMC8286840, “Identifying SARS-CoV-2 antiviral compounds by screening for small molecule inhibitors of Nsp3 papain-like protease” (Biochemical Journal, 2021):
Counter-ions that a name gives are not always drawn. Like-named read-outs stand apart in the source and are kept apart here.

What was measured:
[1] = target: T1, SARS-CoV-2 PLpro (nsp3 1564–1878) (Severe acute respiratory syndrome coronavirus 2, UniProt P0DTD1); assay: biochemical; set-up: FRET-quenched peptide (Pro3) cleavage by PLpro, 10 min pre-incubation, slope over 20 min, normalised to no-compound control; conditions: high concentration screen, read-out: % of control remaining
[2] = target: T1, SARS-CoV-2 PLpro (nsp3 1564–1878); assay: biochemical; set-up: FRET-quenched peptide (Pro3) cleavage by PLpro, 10 min pre-incubation, slope over 20 min, normalised to no-compound control; conditions: low concentration screen, read-out: % of control remaining

Work on `Cc1ccc(C(=O)Nc2ccc(S(=O)(=O)O)c3cc(S(=O)(=O)O)cc(S(=O)(=O)O)c23)cc1NC(=O)c1cccc(NC(=O)Nc2cccc(C(=O)Nc3cc(C(=O)Nc4ccc(S(=O)(=O)O)c5cc(S(=O)(=O)O)cc(S(=O)(=O)O)c45)ccc3C)c2)c1` [Suramin hexasodium] yielded a remaining activity at 3.75 µM ([1]; Well no.=1469) of 102%.

`CC(C(=O)O)c1cccc(C(=O)c2ccccc2)c1` (stereo not drawn) [Ketoprofen] showed a remaining activity at 3.75 µM ([1]; Well no.=973) of 101% and a remaining activity at 3.75 µM ([1]; Well no.=1576) of 98.4%.

In the case of `O=C1CCCN1CC#CCN1CCCC1` [Oxotremorine sesquifumarate salt], the remaining activity at 1.25 µM ([2]; Well no.=946) is reported as 103%.

In the case of `Cc1noc(-c2ccc(-c3ccc(CC(=O)O)cc3)cc2)c1NC(=O)O[C@H](C)c1ccccc1` [AM095 (free acid)], the remaining activity at 3.75 µM ([1]; Well no.=7853) is reported as 101%.

With `Cc1cc2c(cc1Cl)N(C(=O)Nc1ccc(Oc3cccnc3C)nc1)CC2` [SB 242084] the remaining activity at 1.25 µM ([2]; Well no.=7137) was 103%.

For `COC(=O)[C@H]1[C@H]2C[C@H]3c4[nH]c5ccccc5c4CCN3C[C@H]2CC[C@@H]1O` [Rauwolscine (hydrochloride)], the remaining activity at 3.75 µM ([1]; Well no.=8155) was 99.9%.

For `O=C(c1ccc(Nc2nccc(-c3cc4ccccc4s3)n2)cc1)N1CCC(N2CCCC2)CC1` [IKK Inhibitor VII], the remaining activity at 1.25 µM ([2]; Well no.=2439) was 103%.

`CCN(CC)CCCC(C)Nc1nc(C)cc(Nc2ccc3nc(C)cc(N)c3c2)n1` (stereo not drawn) [NSC 23766 (trihydrochloride)] gave a remaining activity at 1.25 µM ([2]; Well no.=7865) of 98.1%.

`O=c1cc(-c2cccc3c2Sc2ccccc2S3)oc(N2CCOCC2)c1` [ATM Kinase Inhibitor] gave a remaining activity at 3.75 µM ([1]; Well no.=2310) of 104%.

With `C1COC(NC(C2CC2)C2CC2)=N1` [Rilmenidine phosphate] the remaining activity at 3.75 µM ([1]; Well no.=1695) was 106%.

`CN(C)CCCN1c2ccccc2Sc2ccccc21` [Promazine (hydrochloride)] was tested, and the remaining activity at 1.25 µM ([2]; Well no.=6711) was 103%.

In the case of `O=C(Nc1cccc2c(=O)cc(-c3nnn[nH]3)oc12)c1ccc(OCCCCc2ccccc2)cc1` [Pranlukast (hemihydrate)], the remaining activity at 3.75 µM ([1]; Well no.=6603) is reported as 102%.

`Cc1cccc(C)c1NC1=NCCCS1` [Xylazine hydrochloride] was tested, and the remaining activity at 3.75 µM ([1]; Well no.=1388) was 98.8%.

`CC(=O)[C@H]1CC[C@H]2[C@@H]3CC[C@H]4C[C@H](O)CC[C@]4(C)[C@H]3CC[C@]12C` [5alpha-Pregnan-3alpha-ol-20-one] showed a remaining activity at 1.25 µM ([2]; Well no.=1353) of 104%.

`Nc1c2c(nc3ccccc13)CCCC2` [Tacrine] showed a remaining activity at 3.75 µM ([1]; Well no.=1675) of 105%.

`CCC1(c2ccc(N)cc2)CCC(=O)NC1=O` (racemic) [DL-Aminoglutethimide] gave a remaining activity at 1.25 µM ([2]; Well no.=2117) of 99.9%.

In the case of `CN1C[C@@H](NS(=O)(=O)N(C)C)C[C@@H]2c3cccc4c3c(cn4C)C[C@H]21` [Mesulergine], the remaining activity at 3.75 µM ([1]; Well no.=1692) is reported as 106%.

`O=C(CCCN1CCC2(CC1)C(=O)NCN2c1ccccc1)c1ccc(F)cc1` [Spiperone.HCl] was tested, and the remaining activity at 3.75 µM ([1]; Well no.=1648) was 106%.

`Cc1cc(C(C)(C)C)c(O)c(C)c1CC1=NCCN1` [Oxymetazoline.HCl] showed a remaining activity at 3.75 µM ([1]; Well no.=1683) of 105%.

`CN(C)CCC(c1ccc(Cl)cc1)c1ccccn1` (racemic) was tested, and the remaining activity at 1.25 µM ([2]; Well no.=124) was 92.9%.

`O=C(CCN1CCN(C(=O)OCc2cc(Cl)cc(Cl)c2)CC1)c1ccc2[nH]c(=O)oc2c1` [3,5-dichlorobenzyl 4-[3-oxo-3-(2-oxo-2,3-dihydro-1,3-benzoxazol-6-yl)propyl]-1-piperazinecarboxylate] was tested, and the remaining activity at 3.75 µM ([1]; Well no.=5605) was 105%.

`COc1cc2nc(N3CCN(C(=O)c4ccco4)CC3)nc(N)c2cc1OC` [Prazosin hydrochloride] was tested, and the remaining activity at 1.25 µM ([2]; Well no.=1349) was 98.8%.

Compound `C=CCc1ccccc1OCC(O)CNC(C)C` (stereo not drawn) [Alprenolol.HCl] has a remaining activity at 1.25 µM ([2]; Well no.=1686) of 103%.

Compound `CN1[C@@H](CC(=O)c2ccccc2)CCC[C@H]1C[C@H](O)c1ccccc1` [Lobeline] has a remaining activity at 3.75 µM ([1]; Well no.=1663) of 103%.

In the case of `Cc1ccc(OC[C@H](O)[C@@H](C)NC(C)C)c2c1CCC2` [ICI 118,551 (hydrochloride)], the remaining activity at 1.25 µM ([2]; Well no.=7035) is reported as 106%.

Work on `CC/C(=C(/CC)c1ccc(O)cc1)c1ccc(O)cc1` [Diethylstilbestrol] yielded a remaining activity at 3.75 µM ([1]; Well no.=1982) of 98.4%.

Compound `Cn1c(=O)c2nc[nH]c2n(C)c1=O` [Theophylline] has a remaining activity at 1.25 µM ([2]; Well no.=1235) of 97.1%, a remaining activity at 1.25 µM ([2]; Well no.=6249) of 110% and a remaining activity at 1.25 µM ([2]; Well no.=8277) of 98.3%.

Compound `S=C(S)O[C@@H]1C[C@@H]2C[C@@H]1[C@H]1CCC[C@@H]21` [D609] has a remaining activity at 3.75 µM ([1]; Well no.=4133) of 100%.

`Cc1nccn1CC1CCc2c(c3ccccc3n2C)C1=O` (stereo not drawn) [Ondansetron (hydrochloride dihydrate)] was tested, and the remaining activity at 3.75 µM ([1]; Well no.=7521) was 105%.

`CN1[C@@H]2CC[C@H]1C[C@@H](OC(=O)C(CO)c1ccccc1)C2` (stereo partly drawn) [Atropine] was tested, and the remaining activity at 1.25 µM ([2]; Well no.=1552) was 100%.

For `Oc1cc2c(cc1O)C(c1ccccc1)CNCC2` (racemic), the remaining activity at 3.75 µM ([1]; Well no.=542) was 98.7%.

`O=C1CC2(CCCC2)CC(=O)N1CCCCN1CCN(c2ncccn2)CC1` [Buspirone] was tested, and the remaining activity at 3.75 µM ([1]; Well no.=2179) was 105%.

Compound `COc1cc(Nc2ncc3c(n2)-c2ccc(Cl)cc2C(c2c(F)cccc2OC)=NC3)ccc1C(=O)O` [MLN8237 (Alisertib)] has a remaining activity at 3.75 µM ([1]; Well no.=4675) of 104%.

In the case of `CN(C)c1ccc(O)c2c1C[C@H]1C[C@H]3[C@H](N(C)C)C(O)=C(C(N)=O)C(=O)[C@@]3(O)C(O)=C1C2=O`, the remaining activity at 1.25 µM ([2]; Well no.=3663) is reported as 102%.

`CCCCCCCCCCCCCCCC(=O)NCCO` [Palmitoylethanolamide] was tested, and the remaining activity at 3.75 µM ([1]; Well no.=900) was 106%.

`CC(C)NCC(O)c1ccc(O)c(O)c1` (racemic) was tested, and the remaining activity at 1.25 µM ([2]; Well no.=1107) was 97.8%.

`CCCC(=O)Nc1ccc(OCC(O)CNC(C)C)c(C(C)=O)c1` (stereo not drawn) [Acebutolol HCl] was tested, and the remaining activity at 3.75 µM ([1]; Well no.=5074) was 103%.

With `CC(C)(O)c1ccccc1CC[C@@H](SCC1(CC(=O)O)CC1)c1cccc(/C=C/c2ccc3ccc(Cl)cc3n2)c1` [Montelukast] the remaining activity at 3.75 µM ([1]; Well no.=1615) was 101%.

`CC1(C)C(=O)N(CCN2CCC(C(=O)c3ccc(F)cc3)CC2)c2ccccc21` [LY-310,762 hydrochloride] gave a remaining activity at 1.25 µM ([2]; Well no.=833) of 99.6%.

`CN1C[C@@H]2c3ccccc3Oc3ccc(Cl)cc3[C@H]2C1` (racemic) [Asenapine] gave a remaining activity at 3.75 µM ([1]; Well no.=5151) of 105%.

`CCC(COC(=O)c1cc(OC)c(OC)c(OC)c1)(c1ccccc1)N(C)C` (stereo not drawn) [Trimebutine (maleate)] was tested, and the remaining activity at 3.75 µM ([1]; Well no.=6655) was 107%.

`CN(C)CCCN1c2ccccc2Sc2ccc(C(F)(F)F)cc21` [Triflupromazine hydrochloride] showed a remaining activity at 3.75 µM ([1]; Well no.=1285) of 105%.

`CNCC[C@H](Oc1ccc(C(F)(F)F)cc1)c1ccccc1` [S-(+)-Fluoxetine hydrochloride] gave a remaining activity at 3.75 µM ([1]; Well no.=753) of 99.7%.

`COc1ccc([C@@H]2Sc3ccccc3N(CCN(C)C)C(=O)[C@@H]2OC(C)=O)cc1` [Diltiazem hydrochloride] was tested, and the remaining activity at 3.75 µM ([1]; Well no.=399) was 103%.

`COc1ccc(Cl)cc1NC(=O)Nc1cc(C)nc2ccccc12` [IGF-1R Inhibitor II] was tested, and the remaining activity at 3.75 µM ([1]; Well no.=2451) was 104%.

Work on `CN(C)CC/C=C1/c2ccccc2COc2ccc(CC(=O)O)cc21` [Olopatadine] yielded a remaining activity at 3.75 µM ([1]; Well no.=1786) of 103%.

Work on `CN1CCN(C2Cc3ccccc3Sc3ccc(Cl)cc32)CC1` (stereo not drawn) [Octoclothepin maleate salt] yielded a remaining activity at 3.75 µM ([1]; Well no.=5506) of 108%.

Work on `CC(N)(C(=O)O)c1ccc(C(=O)O)cc1` (racemic) yielded a remaining activity at 3.75 µM ([1]; Well no.=880) of 111%.

`Oc1cc2c(cc1O)C(c1ccccc1)CNCC2` (stereo not drawn) [SKF 38393 (hydrochloride)] showed a remaining activity at 3.75 µM ([1]; Well no.=7231) of 97.8%.

Work on `CN(C)CCCN1c2ccccc2CCc2ccccc21` [Imipramine.HCl] yielded a remaining activity at 3.75 µM ([1]; Well no.=1688) of 102%.

In the case of `C[N+](C)(C)[C@@H](Cc1c[nH]c(=S)[nH]1)C(=O)[O-]` [L-Ergothioneine], the remaining activity at 3.75 µM ([1]; Well no.=3891) is reported as 100%.
